Assay results: patent publication US20250163057A1, “DCN-1 MODULATING COMPOUNDS AND METHODS OF USE THEREOF” (Cellarity, Inc., priority 2023, published 2025)
Like-named read-outs stand apart in the source and are kept apart here.

Legend:
[1] = target: DCN1 (DCUND1) protein PONY domain (Homo sapiens (Human), UniProt Q96GG9); experiment: TR-FRET assay, DCN1 binding with FAM-labeled probe
In short: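 Tb-DCN1 PONY domain (E. coli, biotin/streptavidin-Tb); FAM-labelled non-covalent inhibitor probe; TritonX buffer, 200 mM NaCl; 5 nM DCN1 + 20 nM probe or 0.31 nM DCN1 + 900 nM total probe; 0.1% DMSO; TR-FRET read 1, 5, 24 hrs.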

[2] = system: fetal hemoglobin gene HBG1; experiment: HBG1 Nanostring Assay in CD34+ HSPC erythroid differentiation culture; type: cell-based, human; settings: for EC50: Homo sapiens, 240 h, HBG1 induction, Day10 of erythroid differentiation; for Nanostring Ymax obs (%): relative to a control compound (C1)
In short: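 HBG1 counts came from direct nCounter hybridization (67° C, 22 h) of day-10 lysates, normalized to ERCC positive controls and a housekeeping gene, giving EC50 and Ymax versus a reference compound. Compounds in 0.1% DMSO were present from day −2 while cells underwent EPO/SCF/IL-3 erythroid differentiation, with IL-3 dropped at day 7, at 37° C.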

DCN1 protein = DCN1 protein (Homo sapiens (Human), UniProt Q96GG9); experiment: Intact Protein MS Analysis with the RapidFire-TOF System (covalent adduct formation); type: binding; settings: MS Emax; 400 nM DCN1, 3 hours at room temperature
Chain of DCN1 protein (Q96GG9 whole entry): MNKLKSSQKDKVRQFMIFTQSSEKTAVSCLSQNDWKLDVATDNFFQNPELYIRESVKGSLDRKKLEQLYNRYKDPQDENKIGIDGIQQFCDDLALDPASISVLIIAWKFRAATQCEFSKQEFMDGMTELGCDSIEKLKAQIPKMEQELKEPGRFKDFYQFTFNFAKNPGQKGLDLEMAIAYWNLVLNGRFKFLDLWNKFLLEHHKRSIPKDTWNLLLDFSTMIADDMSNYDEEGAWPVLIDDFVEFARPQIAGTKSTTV
In short: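 Tag-cleaved human DCN1 (400 nM) expressed in E. coli, in 25 mM Tris-HCl, 200 mM NaCl, 1 mM DTT, was incubated with 11 compound concentrations for 3 h at room temperature and quenched with 0.2% formic acid. Intact-protein Q-TOF MS with deconvolution detected the compound adduct mass.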

[3] = 24 hr after treatment with compound, read-out: TR FRET IC50 24 hr
[4] = TR FRET IC50 1 hr (nM), 1 hr after treatment with compound

Chain of DCN1 (DCUND1) protein PONY domain (Q96GG9 60-248): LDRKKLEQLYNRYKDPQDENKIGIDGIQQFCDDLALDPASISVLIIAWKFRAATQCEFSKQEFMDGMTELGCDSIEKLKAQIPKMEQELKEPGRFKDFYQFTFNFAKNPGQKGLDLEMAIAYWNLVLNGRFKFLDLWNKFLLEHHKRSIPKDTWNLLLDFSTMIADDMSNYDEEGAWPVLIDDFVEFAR

Row | SMILES | IC50 [1, 3] [nM] | IC50 ([1]; read-out: TR FRET IC50 1 hr, 1 hr after treatment with compound) [nM] | EC50 [2] [µM] | Nanostring Ymax obs (%) [2] | % Adduct Formation (DCN1 protein) | IC50 [1, 4] [nM]
1 | CCN1C(=O)[C@@H](NC(=O)c2cccc(C(F)(F)F)c2)[C@@H](c2ccc(F)cc2)c2c(C(=O)N3CC[C@@H](C#N)C3)nn(-c3ccccc3)c21 (mixture of isomers) [Compound I-60] | 200 to 1000 | ≤ 200 | > 1 | ++ (Nanostring Ymax greater than 50.0 and less than or equal to 100.0) | + (MS Emax % adduct formation greater than or equal to 0.0 and less than or equal to 30.0) | –
2 | CCN1C(=O)[C@@H](NC(=O)c2cccc(C(F)(F)F)c2)[C@@H](c2ccc(F)cc2)c2c(CCNC#N)nn(-c3ccccc3)c21 (racemic) [Compound I-10, rac-N-((4R,5R)-3-(2-cyanamidoethyl)-7-ethyl-4-(4-fluorophenyl)-6-oxo-1-phenyl-4,5,6,7-tetrahydro-1H-pyrazolo[3,4-b]pyridin-5-yl)-3-(trifluoromethyl)benzamide] | ≤ 200 | – | 0.1 to 1 | ++ (Nanostring Ymax greater than 50.0 and less than or equal to 100.0) | ++ (MS Emax % adduct formation greater than 30.0 and less than or equal to 80.0) | 200 to 1000
3 | CCN1C(=O)[C@@H](NC(=O)c2cccc(C(F)(F)F)c2)[C@@H](c2ccc(F)cc2)c2c(C/C=C/C(=O)NC)nn(-c3ccccc3)c21 (racemic) [Compound I-38] | 1000 to 3000 | – | > 1 | + (Nanostring Ymax greater than or equal to 0.0 and less than or equal to 50.0) | + (MS Emax % adduct formation greater than or equal to 0.0 and less than or equal to 30.0) | 1000 to 3000
4 | CCN1C(=O)[C@@H](NC(=O)c2cccc(C(F)(F)F)c2)[C@@H](c2ccc(F)cc2)c2c(NC(=O)C3(C#N)CCOCC3)nn(-c3ccccc3)c21 (racemic) [Compound I-66] | 200 to 1000 | – | > 1 | + (Nanostring Ymax greater than or equal to 0.0 and less than or equal to 50.0) | + (MS Emax % adduct formation greater than or equal to 0.0 and less than or equal to 30.0) | –
5 | C=C(CN1CCC(F)(F)C1)C(=O)NCc1nn(-c2ccccc2)c2c1[C@H](c1ccc(F)cc1)[C@H](NC(=O)c1cccc(C(F)(F)F)c1)C(=O)N2CC (racemic) [Compound I-72] | 200 to 1000 | – | 0.1 to 1 | ++ (Nanostring Ymax greater than 50.0 and less than or equal to 100.0) | + (MS Emax % adduct formation greater than or equal to 0.0 and less than or equal to 30.0) | 200 to 1000
6 | CCN1C(=O)[C@@H](NC(=O)c2cccc(C(F)(F)F)c2)[C@@H](c2ccc(F)cc2)c2c(C3(NC#N)CC3)nn(-c3ccccc3)c21 (racemic) [Compound I-87] | ≤ 200 | – | 0.1 to 1 | ++ (Nanostring Ymax greater than 50.0 and less than or equal to 100.0) | +++ (MS Emax % adduct formation greater than 80.0 and less than or equal to 100.0) | 200 to 1000
7 | C=C(CO)C(=O)NCc1nn(-c2ccccc2)c2c1[C@H](c1ccc(F)cc1)[C@H](NC(=O)c1cccc(C(F)(F)F)c1)C(=O)N2CC (racemic) [Compound I-116, rac-N-((4R,5R)-7-ethyl-4-(4-fluorophenyl)-3-((2-(hydroxymethyl)acrylamido)methyl)-6-oxo-1-phenyl-4,5,6,7-tetrahydro-1H-pyrazolo[3,4-b]pyridin-5-yl)-3-(trifluoromethyl)benzamide] | 200 to 1000 | – | > 1 | + (Nanostring Ymax greater than or equal to 0.0 and less than or equal to 50.0) | + (MS Emax % adduct formation greater than or equal to 0.0 and less than or equal to 30.0) | 200 to 1000
